Columns and labels:
Assay in all cases: relative viability (nuclei count vs DMSO), 5 days (fraction); higher = more cells survive
AZD8055 + Lapatinib = compound: COc1ccc(-c2ccc3c(N4CCOC[C@@H]4C)nc(N4CCOC[C@@H]4C)nc3n2)cc1CO [AZD8055] + CS(=O)(=O)CCNCc1ccc(-c2ccc3ncnc(Nc4ccc(OCc5cccc(F)c5)c(Cl)c4)c3c2)o1 [Lapatinib] (partner 2 µM)
How it was run: (§1)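 Lung cancer cell lines were seeded in 1536-well plates and dosed by pin tool the next day, with either a single drug or a fixed anchor-drug dose combined with five library-drug doses (not always all listed) spaced in √10 steps. Five days later, one step fixed the cells and stained their nuclei (final 0.05% Triton X-100, 1% formaldehyde, 1 ug/ml Hoechst), and nuclei were counted on 4× images. Relative viability is the nuclei count in treated wells divided by the count in vehicle wells, and each value is the median of duplicate plates.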

AZD8055 + AZD7762 = compound: COc1ccc(-c2ccc3c(N4CCOC[C@@H]4C)nc(N4CCOC[C@@H]4C)nc3n2)cc1CO [AZD8055] + NC(=O)Nc1cc(-c2cccc(F)c2)sc1C(=O)N[C@H]1CCCNC1 [AZD7762] (partner 0.2 µM)
How it was run: as §1

AZD8055 + Olaparib = compound: COc1ccc(-c2ccc3c(N4CCOC[C@@H]4C)nc(N4CCOC[C@@H]4C)nc3n2)cc1CO [AZD8055] + O=C(c1cc(Cc2n[nH]c(=O)c3ccccc23)ccc1F)N1CCN(C(=O)C2CC2)CC1 [Olaparib] (partner 8 µM)
How it was run: as §1

AZD8055 + Decitabine = compound: COc1ccc(-c2ccc3c(N4CCOC[C@@H]4C)nc(N4CCOC[C@@H]4C)nc3n2)cc1CO [AZD8055] + Nc1ncn([C@H]2C[C@H](O)[C@@H](CO)O2)c(=O)n1 [Decitabine] (partner 2 µM)
How it was run: as §1

| Cell Line | relative viability (AZD8055 + Lapatinib; first compound 0.01 µM) | relative viability (AZD8055 + Lapatinib; first compound 0.03162 µM) | relative viability (AZD8055 + Lapatinib; first compound 0.1 µM) | relative viability (AZD8055 + Lapatinib; first compound 0.3162 µM) | relative viability (AZD8055 + Lapatinib; first compound 1 µM) | relative viability (AZD8055 + AZD7762; first compound 0.01 µM) | relative viability (AZD8055 + AZD7762; first compound 0.03162 µM) | relative viability (AZD8055 + AZD7762; first compound 0.1 µM) | relative viability (AZD8055 + AZD7762; first compound 0.3162 µM) | relative viability (AZD8055 + AZD7762; first compound 1 µM) | relative viability (AZD8055 + Olaparib; first compound 0.01 µM) | relative viability (AZD8055 + Olaparib; first compound 0.03162 µM) | relative viability (AZD8055 + Olaparib; first compound 0.1 µM) | relative viability (AZD8055 + Olaparib; first compound 0.3162 µM) | relative viability (AZD8055 + Olaparib; first compound 1 µM) | relative viability (AZD8055 + Decitabine; first compound 0.01 µM) | relative viability (AZD8055 + Decitabine; first compound 0.03162 µM) | relative viability (AZD8055 + Decitabine; first compound 0.1 µM) | relative viability (AZD8055 + Decitabine; first compound 0.3162 µM) | relative viability (AZD8055 + Decitabine; first compound 1 µM) |
| --- | --- | --- | --- | --- | --- | --- | --- | --- | --- | --- | --- | --- | --- | --- | --- | --- | --- | --- | --- | --- |
| NCI-H2347 | 0.89 | 0.825 | 0.823 | 0.498 | 0.408 | 0.781 | 0.614 | 0.633 | 0.449 | 0.281 | 0.57 | 0.491 | 0.502 | 0.328 | 0.395 | 0.625 | 0.533 | 0.533 | 0.495 | 0.374 |
| NCI-H2405 | 1.03 | 0.955 | 0.858 | 0.395 | 0.292 | 0.832 | 0.779 | 0.621 | 0.324 | 0.313 | 0.904 | 0.851 | 0.772 | 0.359 | 0.35 | 0.79 | 0.715 | 0.593 | 0.363 | 0.339 |
| NCI-H3122 | 1.09 | 1.14 | 1.04 | 0.79 | 0.589 | 1.13 | 1.01 | 0.594 | 0.351 | 0.187 | 0.775 | 0.697 | 0.689 | 0.338 | 0.283 | 0.442 | 0.341 | 0.3 | 0.149 | 0.129 |
| PC-3 [JPC-3] | 0.392 | 0.393 | 0.333 | 0.322 | 0.302 | 0.772 | 0.681 | 0.728 | 0.37 | 0.399 | 1.19 | 1.26 | 1.13 | 0.798 | 0.61 | 0.902 | 0.912 | 0.797 | 0.758 | 0.614 |
| PC-14 | 0.315 | 0.204 | 0.244 | 0.16 | 0.148 | 0.458 | 0.394 | 0.294 | 0.147 | 0.102 | 0.461 | 0.401 | 0.321 | 0.163 | 0.142 | 0.288 | 0.227 | 0.238 | 0.186 | 0.159 |
| RERF-LC-KJ | 0.895 | 0.726 | 0.637 | 0.437 | 0.345 | 1.26 | 1.08 | 0.659 | 0.402 | 0.434 | 0.963 | 1.08 | 0.669 | 0.429 | 0.404 | 0.589 | 0.68 | 0.666 | 0.383 | 0.395 |

Source: the supplement of paper PMC10307832
